Results: ChEMBL document CHEMBL5143672, “New diarylpentanoids and chalcones as potential antimicrobial adjuvants” (2022)

Experiments:
Pseudomonas aeruginosa = assay: Antibacterial activity against Pseudomonas aeruginosa ATCC 27853 assessed as inhibition of bacterial growth by broth microdilution method; format: functional
Enterococcus faecalis [1] = assay: Antibacterial activity against Enterococcus faecalis ATCC 29212 assessed as inhibition of bacterial growth by broth microdilution method; format: functional
Trichophyton rubrum = assay: Antifungal activity against Trichophyton rubrum FF5 assessed as inhibition of fungal growth by broth microdilution method; format: functional
[2] = system: Salmonella enterica subsp. enterica serovar Typhimurium; assay: Inhibition of Multidrug resistance efflux pump in Salmonella enterica serovar typhimurium SL1344 (SE03) assessed as relative fluorescence index using ethidium bromide as substrate at 50 uM by fluorescence based analysis
Enterococcus faecalis [3] = assay: Antimicrobial adjuvant activity against Enterococcus faecalis B3/101 assessed as potentiation of vancomycin-induced antibacterial activity by measuring fold reduction in vancomycin MIC at 64 ug/ml by broth microdilution method; format: functional; conditions: dose 64 µg/ml
[4] = Inhibition of Multidrug resistance efflux pump in Staphylococcus aureus 272123 assessed as relative fluorescence index using ethidium bromide as substrate at 50 uM by fluorescence based analysis
Candida albicans = assay: Antifungal activity against Candidia albicans ATCC 10231 assessed as inhibition of fungal growth by broth microdilution method; format: functional
Salmonella typhimurium = assay: Antibacterial activity against Salmonella enterica serovar typhimurium SL1344 (SE03) assessed as inhibition of bacterial growth by broth microdilution method; format: functional, Salmonella enterica subsp. enterica serovar Typhimurium
Staphylococcus aureus [5] = assay: Antibacterial activity against Staphylococcus aureus ATCC 25923 assessed as inhibition of bacterial growth by broth microdilution method; format: functional
Staphylococcus aureus [6] = assay: Antibacterial activity against methicillin and ofloxacin-resistant Staphylococcus aureus 272123 assessed as inhibition of bacterial growth by broth microdilution method; format: functional
Escherichia coli [7] = assay: Antimicrobial adjuvant activity against ESBL-producing Escherichia coli SA/2 assessed as potentiation of cefotaxime-induced antibacterial activity by measuring fold reduction in cefotaxime MIC at 64 ug/ml by broth microdilution method; format: functional; conditions: dose 64 µg/ml
Aspergillus fumigatus = assay: Antifungal activity against Aspergillus fumigatus ATCC 204305 assessed as inhibition of fungal growth by broth microdilution method; format: functional
Escherichia coli [8] = assay: Antibacterial activity against Escherichia coli ATCC 25922 assessed as inhibition of bacterial growth by broth microdilution method; format: functional
[9] = Inhibition of quorum sensing system in Chromobacterium violaceum wild type 85 assessed as reduction in pigment production incubated for 24 to 48 hrs; conditions: time 24-48 hrs
[10] = Inhibition of quorum sensing system in Chromobacterium violaceum CV026 assessed as reduction in pigment production co-cultured with Sphingomonas paucimobilis Ezf 10-17 for 24 to 48 hrs; conditions: time 24-48 hrs
Serratia marcescens = assay: Inhibition of quorum sensing system in Serratia marcescens AS-1 assessed as reduction in pigment production incubated for 24 to 48 hrs; conditions: time 24-48 hrs
Staphylococcus aureus [11] = assay: Inhibition of biofilm formation in Staphylococcus aureus 272123 at 100 uM incubated for 48 hrs by crystal violet staining based analysis; format: functional
Staphylococcus aureus [12] = assay: Inhibition of biofilm formation in Staphylococcus aureus ATCC 25923 at 100 uM incubated for 48 hrs by crystal violet staining based analysis; format: functional

Row | Compound | MIC (Pseudomonas aeruginosa) | MIC (Enterococcus faecalis [1]) | MIC (Trichophyton rubrum) | RFU [2] | fold change (FC) (Enterococcus faecalis [3]) | RFU [4] | MIC (Candida albicans) | MIC (Salmonella typhimurium) | MIC (Staphylococcus aureus [5]) | MIC (Staphylococcus aureus [6]) | fold change (FC) (Escherichia coli [7]) | MIC (Aspergillus fumigatus) | MIC (Escherichia coli [8]) | Activity [9] | Activity [10] | Activity (Serratia marcescens) | inhibition at 100 µM (Staphylococcus aureus [11]) | inhibition at 100 µM (Staphylococcus aureus [12])
1 | COc1cc(OC)c(OC)cc1/C=C1\Cc2ccccc2C1=O | > 64 µg/mL | > 64 µg/mL | > 128 µg/mL | 0.11 | 2 | -0.34 | > 128 µg/mL | > 64 µg/mL | > 64 µg/mL | > 64 µg/mL | 2 | > 128 µg/mL | > 64 µg/mL |  |  |  |  | 
2 | Cc1ccccc1/C=C1\COC/C(=C\c2ccccc2C)C1=O | > 64 µg/mL | > 64 µg/mL | > 128 µg/mL | -0.08 | 2 | -0.23 | > 128 µg/mL | > 64 µg/mL | > 64 µg/mL | > 64 µg/mL |  | > 128 µg/mL | > 64 µg/mL |  |  |  |  | 
3 | CC(CN1c2ccccc2Sc2ccccc21)N(C)C (stereo not given) |  |  |  |  |  |  |  |  |  |  |  |  |  | 40 mm | 41 mm | 18 mm |  | 
4 | COc1ccccc1/C=C1\COC/C(=C\c2ccccc2OC)C1=O | > 64 µg/mL | > 64 µg/mL | > 128 µg/mL | 0.16 |  | 0.21 | > 128 µg/mL | > 64 µg/mL | > 64 µg/mL | > 64 µg/mL | 2 | > 128 µg/mL | > 64 µg/mL |  |  |  |  | 
5 | COc1ccccc1/C=C1\CC/C(=C\c2ccccc2OC)C1=O | > 64 µg/mL | > 64 µg/mL | > 128 µg/mL | 0.15 | 2 | -0.39 | > 128 µg/mL | > 64 µg/mL | > 64 µg/mL | > 64 µg/mL |  | > 128 µg/mL | > 64 µg/mL |  |  |  |  | 
6 | COc1cc(OC)c(OC)cc1/C=C1\CSc2ccccc2C1=O | > 64 µg/mL | > 64 µg/mL | > 128 µg/mL | -0.02 | 2 | 0.36 | > 128 µg/mL | > 64 µg/mL | > 64 µg/mL | > 64 µg/mL |  | > 128 µg/mL | > 64 µg/mL | 0 mm | 0 mm | 0 mm | 74.1% | 0%
7 | O=C1/C(=C/c2ccc(C(F)(F)F)cc2)COC/C1=C\c1ccc(C(F)(F)F)cc1 | > 64 µg/mL | > 64 µg/mL | > 128 µg/mL | -0.24 |  | -0.12 | > 128 µg/mL | > 64 µg/mL | > 64 µg/mL | > 64 µg/mL | 2 | > 128 µg/mL | > 64 µg/mL |  |  |  |  | 
8 | O=C1/C(=C/c2cccc(F)c2)COC/C1=C\c1cccc(F)c1 | > 64 µg/mL | > 64 µg/mL | > 128 µg/mL | 0.04 | 2 | -0.16 | > 128 µg/mL | > 64 µg/mL | > 64 µg/mL | > 64 µg/mL |  | > 128 µg/mL | > 64 µg/mL |  |  |  |  | 
9 | O=C1/C(=C/c2ccc(Br)cc2)COC/C1=C\c1ccc(Br)cc1 | > 64 µg/mL | > 64 µg/mL | > 128 µg/mL | 0.06 |  | 0.53 | > 128 µg/mL | > 64 µg/mL | > 64 µg/mL | > 64 µg/mL | 8 | > 128 µg/mL | > 64 µg/mL | 0 mm | 0 mm | 0 mm | 51.2% | 0%
10 | O=C1/C(=C/c2ccccc2F)COC/C1=C\c1ccccc1F | > 64 µg/mL | > 64 µg/mL | > 128 µg/mL | -0.04 |  | -0.08 | > 128 µg/mL | > 64 µg/mL | > 64 µg/mL | > 64 µg/mL | 2 | > 128 µg/mL | > 64 µg/mL |  |  |  |  | 
11 | O=C1/C(=C/c2ccccc2Cl)COC/C1=C\c1ccccc1Cl | > 64 µg/mL | > 64 µg/mL | > 128 µg/mL | -0.08 |  | -0.16 | > 128 µg/mL | > 64 µg/mL | > 64 µg/mL | > 64 µg/mL | 2 | > 128 µg/mL | > 64 µg/mL |  |  |  |  | 
12 | Cc1cccc(/C=C2\COC/C(=C\c3cccc(C)c3)C2=O)c1 | > 64 µg/mL | > 64 µg/mL | > 128 µg/mL | -0.12 | 2 | 0.11 | > 128 µg/mL | > 64 µg/mL | > 64 µg/mL | > 64 µg/mL | 2 | > 128 µg/mL | > 64 µg/mL |  |  |  |  | 
13 | COc1cc(/C=C2\COC/C(=C\c3cc(OC)cc(OC)c3)C2=O)cc(OC)c1 | > 64 µg/mL | > 64 µg/mL | > 128 µg/mL | 0.09 | 4 | 0.25 | > 128 µg/mL | > 64 µg/mL | > 64 µg/mL | > 64 µg/mL |  | > 128 µg/mL | > 64 µg/mL |  |  |  |  | 
14 | COc1cc(/C=C2\COC/C(=C\c3cc(OC)c(OC)c(OC)c3)C2=O)cc(OC)c1OC | > 64 µg/mL | > 64 µg/mL | > 128 µg/mL | -0.05 |  | 0.02 | > 128 µg/mL | > 64 µg/mL | > 64 µg/mL | > 64 µg/mL | 2 | > 128 µg/mL | > 64 µg/mL |  |  |  |  | 
15 | O=C1/C(=C/c2ccccc2Br)COC/C1=C\c1ccccc1Br | > 64 µg/mL | > 64 µg/mL | > 128 µg/mL | -0.02 | 2 | -0.05 | > 128 µg/mL | > 64 µg/mL | > 64 µg/mL | > 64 µg/mL |  | > 128 µg/mL | > 64 µg/mL |  |  |  |  | 
16 | COc1cccc(/C=C2\COC/C(=C\c3cccc(OC)c3)C2=O)c1 | > 64 µg/mL | > 64 µg/mL | > 128 µg/mL | 0.05 | 4 | 0.17 | > 128 µg/mL | > 64 µg/mL | > 64 µg/mL | > 64 µg/mL |  | > 128 µg/mL | > 64 µg/mL |  |  |  |  | 
17 | COc1ccc(/C=C2\COC/C(=C\c3ccc(OC)c(OC)c3)C2=O)cc1OC | > 64 µg/mL | > 64 µg/mL | > 128 µg/mL | -0.02 |  | 2.47 | > 128 µg/mL | > 64 µg/mL | > 64 µg/mL | > 64 µg/mL | 2 | > 128 µg/mL | > 64 µg/mL | 0 mm | 0 mm | 0 mm | 0% | 0%
18 | O=C1/C(=C/c2ccc(Cl)cc2Cl)COC/C1=C\c1ccc(Cl)cc1Cl | > 64 µg/mL | > 64 µg/mL | > 128 µg/mL | -0.13 |  | -0.25 | > 128 µg/mL | > 64 µg/mL | > 64 µg/mL | > 64 µg/mL | 2 | > 128 µg/mL | > 64 µg/mL |  |  |  |  | 
19 | COc1ccccc1/C=C1\CSC/C(=C\c2ccccc2OC)C1=O | > 64 µg/mL | > 64 µg/mL | > 128 µg/mL | 0.01 | 4 | 0.01 | > 128 µg/mL | > 64 µg/mL | > 64 µg/mL | > 64 µg/mL |  | > 128 µg/mL | > 64 µg/mL |  |  |  |  | 
20 | COc1ccc(/C=C2\COC/C(=C\c3ccc(OC)cc3OC)C2=O)c(OC)c1 | > 64 µg/mL | > 64 µg/mL | > 128 µg/mL | -0.15 |  | -0.19 | > 128 µg/mL | > 64 µg/mL | > 64 µg/mL | > 64 µg/mL | 8 | > 128 µg/mL | > 64 µg/mL |  |  |  |  | 
21 | COc1ccccc1/C=C1\Cc2ccccc2C1=O | > 64 µg/mL | > 64 µg/mL | > 128 µg/mL | 0.25 | 2 | 0.05 | > 128 µg/mL | > 64 µg/mL | > 64 µg/mL | > 64 µg/mL |  | > 128 µg/mL | > 64 µg/mL |  |  |  |  | 
22 | O=C1/C(=C/c2ccc(F)cc2)COC/C1=C\c1ccc(F)cc1 | > 64 µg/mL | > 64 µg/mL | > 128 µg/mL | 0.17 |  | -0.11 | > 128 µg/mL | > 64 µg/mL | > 64 µg/mL | > 64 µg/mL | 8 | > 128 µg/mL | > 64 µg/mL |  |  |  |  | 
23 | Cc1ccc(/C=C2\COC/C(=C\c3ccc(C)cc3)C2=O)cc1 | > 64 µg/mL | > 64 µg/mL | > 128 µg/mL | -0.21 | 2 | -0.24 | > 128 µg/mL | > 64 µg/mL | > 64 µg/mL | > 64 µg/mL | 2 | > 128 µg/mL | > 64 µg/mL |  |  |  |  | 
